Assay results as given in patent publication US10669283B2, “Compound and pharmacologically acceptable salt thereof” (MEIJI SEIKA PHARMA CO., LTD., priority 2016, dated 2020).
Read-outs that look alike come from different tables or passages of the source.

Test system: PDE4
Assay: PDE4 inhibition, scintillation proximity assay (SPA);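 on PDE4 Inhibitory Activity (concentration for the inhibition rate of 50%): A below 100 nM B 100 to below 1000 nM C 1000 nM or more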
Type: biochemical
How it was run: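 Compound pre-diluted 1:10 in 50 mM Tris-HCl pH 7.4, 8.3 mM MgCl2, 1.7 mM EGTA, 3 mg/mL BSA, then incubated with PDE4 and [2,8-3H]-cAMP for 120 min at room temperature. Product captured on ZnSO4-containing YSi-SPA beads for 15 min; radioactivity counted against no-enzyme blank and DMSO control.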

[1] = scintillation proximity assay (SPA), evaluated as classes A, B, C, read-out: PDE4 Inhibitory Activity (concentration for the inhibition rate of 50%)

Row | Structure (SMILES) | IC50 [1] | IC50 (scintillation proximity assay, class symbols, read-out: PDE4 Inhibitory Activity)
1 | COCc1cc(-c2nccs2)c2oc(N3CC4CCC(C3)N4)nc2c1C(F)(F)F [Example 167, 2-(3,8-Diazabicyclo[3.2.1]octan-3-yl)-5-(methoxymethyl)-7-(thiazol-2-yl)-4-(trifluoromethyl)benzo[d]oxazole] | < 100 nM | 
2 | c1csc(-c2cc(OCC3COC3)cc3nc(N4CC5CCC(C4)N5)oc23)n1 [Example 70, 2-(3,8-Diazabicyclo[3.2.1]octan-3-yl)-5-(oxetan-3-ylmethoxy)-7-(thiazol-2-yl)benzo[d]oxazole] | < 100 nM | 
3 | COc1cc(-c2nccs2)c2oc(N3CC4CCCC(C3)N4)nc2c1 [Example 62, 2-(3,9-Diazabicyclo[3.3.1]nonan-3-yl)-5-methoxy-7-(thiazol-2-yl)benzo[d]oxazole] | < 100 nM | 
4 | CC(C)c1cc(-c2nccs2)c2oc(N3CC4CC(C3)N4)nc2c1 [Example 22] | < 100 nM | 
5 | CC(C)(O)c1cc(-c2nccs2)c2oc(N3CC4CC(C3)N4)nc2c1C(F)(F)F [Example 178, 2-(2-(3,6-Diazabicyclo[3.1.1]heptan-3-yl)-7-(thiazol-2-yl)-4-(trifluoromethyl)benzo[d]oxazol-5-yl)propan-2-ol] | < 100 nM | 
6 | Oc1cc(-c2nccs2)c2oc(N3CC4CCCC(C3)N4)nc2c1 [Example 65, 2-(3,9-Diazabicyclo[3.3.1]nonan-3-yl)-7-(thiazol-2-yl) benzo[d]oxazol-5-ol] | < 100 nM | 
7 | C=CCOc1cc(-c2nccs2)c2oc(N3CC4CCC(C3)N4)nc2c1 [Example 72, 5-(Allyloxy)-2-(3,8-diazabicyclo[3.2.1]octan-3-yl)-7-(thiazol-2-yl)benzo[d]oxazole] | < 100 nM | 
8 | COC(C)(C)c1cc(-c2nccs2)c2oc(N3CC4CCC(C3)N4)nc2c1C(F)(F)F [Example 171, 2-(3,8-Diazabicyclo[3.2.1]octan-3-yl)-5-(2-methoxypropan-2-yl)-7-(thiazol-2-yl)-4-(trifluoromethyl)benzo[d]oxazole] | < 100 nM | 
9 | CCOC(=O)c1cc(-n2cccn2)c2oc(N3CC4COCC(C3)N4)nc2c1 [Example 92, Ethyl 2-(3-oxa-7,9-diazabicyclo[3.3.1]nonan-7-yl)-7-(1H-pyrazol-1-yl)benzo[d]oxazole-5-carboxylate] | > 1000 nM | 
10 | COC(C)(C)c1cc(-c2nccs2)c2oc(N3CC4CCCC(C3)N4)nc2c1OC(F)(F)F [Example 200, 2-(3,9-Diazabicyclo[3.3.1]nonan-3-yl)-5-(2-methoxypropan-2-yl)-7-(thiazol-2-yl)-4-(trifluoromethoxy)benzo[d]oxazole] | < 100 nM | 
11 | COc1cc(-c2nccs2)c2oc(N3CC4CCC(C3)N4)nc2c1 [Example 60, 2-(3,8-Diazabicyclo[3.2.1]octan-3-yl)-5-methoxy-7-(thiazol-2-yl)benzo[d]oxazole] | < 100 nM | 
12 | NS(=O)(=O)c1cc(-c2nccs2)c2oc(N3CC4CCCC(C3)N4)nc2c1 [Example 59, 2-(3,9-Diazabicyclo[3.3.1]nonan-3-yl)-7-(thiazol-2-yl) benzo[d]oxazole-5-sulfonamide] | < 100 nM | 
13 | CN(C)Cc1cc(-c2nccs2)c2oc(N3CC4CCC(C3)N4)nc2c1 [Example 169, 1-(2-(3,8-Diazabicyclo[3.2.1]octan-3-yl)-7-(thiazol-2-yl)benzo[d]oxazol-5-yl)-N,N-dimethylmethanamine] | < 100 nM | 
14 | CC(O)COC(c1ccc(-c2nccs2)c2oc(N3CC4CC(C3)N4)nc12)C(F)(F)F (stereo not drawn) [Example 261, 1-(1-(2-(3,6-Diazabicyclo[3.1.1]heptan-3-yl)-7-(thiazol-2-yl)benzo[d]oxazol-4-yl)-2,2,2-trifluoroethoxy)propan-2-ol] | < 100 nM | 
15 | OCCOC(c1ccc(-c2nccs2)c2oc(N3CC4CCC(C3)N4)nc12)C(F)(F)F (stereo not drawn) [Example 225, 2-(1-(2-(3,8-Diazabicyclo[3.2.1]octan-3-yl)-7-(thiazol-2-yl)benzo[d]oxazol-4-yl)-2,2,2-trifluoroethoxy)ethan-1-ol] | < 100 nM | 
16 | CCOC(=O)c1cc(-n2cccn2)c2oc(N3CC4CC(C3)N4)nc2c1 [Example 91, Ethyl 2-(3,6-diazabicyclo[3.1.1]heptan-3-yl)-7-(1H-pyrazol-1-yl)benzo[d]oxazole-5-carboxylate] | > 1000 nM | 
17 | CCOC(=O)c1cc(-c2nccs2)c2oc(N3CC4COCC(C3)N4)nc2c1 [Example 88, Ethyl 2-(3-oxa-7,9-diazabicyclo[3.3.1]nonan-7-yl)-7-(thiazol-2-yl)benzo[d]oxazole-5-carboxylate] | 100 to 1000 nM | 
18 | COC(c1ccc(-c2nccs2)c2oc(N3CC4CC(C3)N4)nc12)C(F)(F)F (stereo not drawn) [Example 123, 2-(3,6-Diazabicyclo[3.1.1]heptan-3-yl)-7-(thiazol-2-yl)-4-(2,2,2-trifluoro-1-methoxyethyl)benzo[d]oxazole] | < 100 nM | 

Row | Structure (SMILES) | IC50 [1] | IC50 (scintillation proximity assay, class symbols, read-out: PDE4 Inhibitory Activity)
19 | FC(F)(F)COc1cc(-c2nccs2)c2oc(N3CC4CC(C3)N4)nc2c1 [Example 67, 2-(3,6-Diazabicyclo[3.1.1]heptan-3-yl)-7-(thiazol-2-yl)-5-(2,2,2-trifluoroethoxy)benzo[d]oxazole] | < 100 nM | 
20 | COCCOc1cc(-c2nccs2)c2oc(N3CC4CCC(C3)N4)nc2c1 [Example 69, 2-(3,8-Diazabicyclo[3.2.1]octan-3-yl)-5-(2-methoxyethoxy)-7-(thiazol-2-yl)benzo[d]oxazole] | < 100 nM | 
21 | FC(F)(F)c1cc(-c2nccs2)c2oc(N3CC4CCCC(C3)N4)nc2c1 [Example 53, 2-(3,9-Diazabicyclo[3.3.1]nonan-3-yl)-7-(thiazol-2-yl)-5-(trifluoromethyl)benzo[d]oxazole] | < 100 nM | 
22 | CC(O)c1ccc(-c2nccs2)c2oc(N3CC4CCC(C3)N4)nc12 (stereo not drawn) [Example 124, 1-(2-(3,8-Diazabicyclo[3.2.1]octan-3-yl)-7-(thiazol-2-yl)benzo[d]oxazol-4-yl)ethan-1-ol] | < 100 nM | 
23 | CC(C)(O)COC(c1ccc(-c2cscn2)c2oc(N3CC4CC(C3)N4)nc12)C(F)(F)F (stereo not drawn) [Example 284, 1-(1-(2-(3,6-Diazabicyclo[3.1.1]heptan-3-yl)-7-(thiazol-4-yl)benzo[d]oxazol-4-yl)-2,2,2-trifluoroethoxy)-2-methylpropan-2-ol] | < 100 nM | 
24 | OC(c1ccc(-c2nccs2)c2oc(N3CC4CCC(C3)N4)nc12)C(F)(F)F (stereo not drawn) [Example 119, 1-(2-(3,8-Diazabicyclo[3.2.1]octan-3-yl)-7-(thiazol-2-yl)benzo[d]oxazol-4-yl)-2,2,2-trifluoroethan-1-ol] | < 100 nM | 
25 | OC(O)(c1cc(-c2nccs2)c2oc(N3CC4CCC(C3)N4)nc2c1)C(F)(F)F [Example 157, 1-(2-(3,8-Diazabicyclo[3.2.1]octan-3-yl)-7-(thiazol-2-yl)benzo[d]oxazol-5-yl)-2,2,2-trifluoroethane-1,1-diol] | < 100 nM | 
26 | CC(=O)c1cc(-c2nccs2)c2oc(N3CC4CCC(C3)N4)nc2c1OC(F)(F)F [Example 213, 1-(2-(3,8-Diazabicyclo[3.2.1]octan-3-yl)-7-(thiazol-2-yl)-4-(trifluoromethoxy)benzo[d]oxazol-5-yl)ethan-1-one] | < 100 nM | 
27 | CC(O)c1cc(-c2nccs2)c2oc(N3CC4CC(C3)N4)nc2c1 (stereo not drawn) [Example 107, 1-(2-(3,6-Diazabicyclo[3.1.1]heptan-3-yl)-7-(thiazol-2-yl)benzo[d]oxazol-5-yl)ethan-1-ol] | 100 to 1000 nM | 
28 | FC(F)(F)Oc1ccc(-c2nccs2)c2oc(N3CC4CCCC(C3)N4)nc12 [Example 30, 2-(3,9-Diazabicyclo[3.3.1]nonan-3-yl)-7-(thiazol-2-yl)-4-(trifluoromethoxy)benzo[d]oxazole] | < 100 nM | 
29 | OCc1cc(-c2nccs2)c2oc(N3CC4CCC(C3)N4)nc2c1OC(F)(F)F [Example 201, (2-(3,8-Diazabicyclo[3.2.1]octan-3-yl)-7-(thiazol-2-yl)-4-(trifluoromethoxy)benzo[d]oxazol-5-yl)methanol] | < 100 nM | 
30 | COC(C)(C)c1cc(-c2nccs2)c2oc(N3CC4CCC(C3)N4)nc2c1OC(F)(F)F [Example 198, 2-(3,8-Diazabicyclo[3.2.1]octan-3-yl)-5-(2-methoxypropan-2-yl)-7-(thiazol-2-yl)-4-(trifluoromethoxy)benzo[d]oxazole] | < 100 nM | 
31 | CCOC(=O)c1cc(-c2nccs2)c2oc(N3CC4CCC(C3)N4)nc2c1OC(F)(F)F [Example 186, Ethyl 2-(3,8-diazabicyclo[3.2.1]octan-3-yl)-7-(thiazol-2-yl)-4-(trifluoromethoxy)benzo[d]oxazole-5-carboxylate] | < 100 nM | 
32 | C[S+]([O-])c1cc(-c2nccs2)c2oc(N3CC4CCCC(C3)N4)nc2c1 (stereo not drawn) [Example 44, 2-(3,9-Diazabicyclo[3.3.1]nonan-3-yl)-5-(methylsulfinyl)-7-(thiazol-2-yl)benzo[d]oxazole] | < 100 nM | 
33 | CC(C)(O)C(F)(F)OC(c1ccc(-c2nccs2)c2oc(N3CC4CC(C3)N4)nc12)C(F)(F)F (stereo not drawn) [Example 257, 1-(1-(2-(3,6-Diazabicyclo[3.1.1]heptan-3-yl)-7-(thiazol-2-yl)benzo[d]oxazol-4-yl)-2,2,2-trifluoroethoxy)-1,1-difluoro-2-methylpropan-2-ol] | < 100 nM | 
34 | CCOC(=O)c1cc(-c2nccs2)c2oc(N3CC4CC(C3)N4)nc2c1C(F)(F)F [Example 165, Ethyl 2-(3,6-diazabicyclo[3.1.1]heptan-3-yl)-7-(thiazol-2-yl)-4-(trifluoromethyl)benzo[d]oxazole-5-carboxylate] | < 100 nM | 
35 | FC(F)(/C=C/c1cccnc1)Oc1ccc(-c2nccs2)c2oc(N3CC4CC(C3)N4)nc12 [Example 406, (E)-2-(3,6-diazabicyclo [3.1.1]heptan-3-yl)-4-((1,1-difluoro-3-(pyridin-3-yl)allyl)oxy)-7-(thiazol-2-yl) benzo[d] oxazole] |  | < 100 nM
36 | FC(F)(F)Oc1ccc(-c2nccs2)c2oc(N3CC4CCC(C3)N4)nc12 [Example 28, 2-(3,8-Diazabicyclo[3.2.1]octan-3-yl)-7-(thiazol-2-yl)-4-(trifluoromethoxy)benzo[d]oxazole] | < 100 nM | 
